Tests used:
[1] = system: primary human cardiac fibroblasts (HCFs); assay: Proliferation of primary human cardiac fibroblasts, BrdU-ELISA; format: cell-based; details: 24 h; for proliferation of primary HCFs: 0.1, 1, 10 μM (Lycorine 1, 5, 10 μM), DMSO control; for proliferation of HCFs (derivative screen): 10 μM, DMSO solvent control
Procedure: HCFs were incubated with 0.1 μM, 1 μM and 10 μM Bufalin, Gitoxigenin, Anisomycin and Geldanamycin as well as with 1 μM, 5 μM and 10 μM Lycorine for 24 h and proliferation of HCFs was measured by BrdU-ELISA (see FIG. 1). Due to major drawbacks as a drug candidate, Geldanamycin was not included in the follow-up studies, in particular in the in vivo experiments.
HCFs and HL-1 cells were treated with Bufalin, Gitoxigenin, Lycorine and Anisomycin for 24 h with the same concentrations as indicated in Example 1 and proliferation of HCFs and cardiomyocyte cell line HL-1 cells was measured by BrdU-ELISA, DMSO refers as a control (see FIG. 2B, 3B, 4B, 5B). The cell proliferation ELISA is a colorimetric alternative to quantitate cell proliferation based on the measurement of BrdU incorporation during DNA synthesis in proliferating cells. After its incorporation into DNA, BrdU is detected by immunoassay by using antibodies being highly specific for BrdU. First, HCFs and/or HL-1 cells are cultured together with various dilutions of test substances (e.g. mitogens, growth factors, cytokines and test compounds such as Bufalin, Gitoxigenin, Lycorine and Anisomycin as mentioned above etc.) in a 96-well in a final volume of 100 μl/well in a humified atmosphere of 37° C. Afterwards, 10 μl/well BrdU labeling solution is added to the cells being cultured in 100 μl/well (final concentration: 10 μM BrdU). Then, cells were re-incubated for additional 2 to 24 h at 37° C. Next, labeling solution is removed and 200 μl/well FixDenat is added to the cells and incubated for 30 min at 15 to 25° C. Then, 100 μl/well anti-BrdU-POD working solution is added and incubated for approximately 90 min, after FixDenat is removed. Next, antibody conjugate is removed and wells are washed with 200 μl-300 μl/well Washing solution (PBS, 1×). After the washing solution is removed, 100 μl/well Substrate solution is added and it is incubated again until color development is sufficient for photometric detection. Further, HCFs were treated with said compounds (Lycorine: 5 μM, Bufalin: 1 μM, Gitoxigenin: 1 μM and Anisomycin: 1 μM) for 24 h as indicated again and subjected to FACS analysis after Annexin-7AAD-staining (see FIG. 2C, 3C, 4C, 5C). After the treatment with said compounds, annexin-7AAD-staining starts with inducing apoptosis in HCFs by a desired method, known to the person skilled in the art, a negative control (w/o induction and staining) and a positive control (f. ex. 500 μM H2O2 or 3 μM Staurosporin) is also needed. Then, the medium with HCFs is transferred into a falcon, washed with PBS and trypsinized. Everything is centrifuged for 5 min at 300×g and then the supernatant is aspirated. The pellet is re-suspended in 200 μl Annexin Red/7AAD Working Solution (1:20, 5 μl Annexin Red/7AAD+195 μl 1× Assay Buffer) and transferred into an Easy Cap Eppendorf tube. After incubation of 15 min at 37° C., it is centrifuged at room temperature (RT) for 5 min at 300×g. Then, the supernatant is aspirated, the pellet washed once with 200 μl 1× Assay Buffer and centrifuged again at RT for 5 min at 300×g. Again, the supernatant is aspirated and the pellet is re-suspended in 200 μl Annexin Red/7AAD working solution and incubated again at RT for 5 min in the dark. Samples are now ready for acquisition on a flow cytometer (blue and red laser).
The cells were incubated for 24 h with 10 μM Bufalin and Lycorine and with 10 μM derivatives of Bufalin (derivatives 3, 5, 6, 7, 8, 9, 10, 11, 12, 13, 14, 16, 17, 18 and 25) and Lycorine (derivative 1, 2, 4, 15, 19, 20, 21, 22, 23, 24 and 26). Then, proliferation of HCFs was measured by BrdU-ELISA (see FIG. 31).

[2] = system: Collagen1a1; assay: Collagen1a1 protein levels in HCFs, Western Blot; format: cell-based, human; details: Lycorine 5 μM, Bufalin, Gitoxigenin, Anisomycin 1 μM, 24 h, DMSO control
Procedure: Additionally, HCFs were treated with said compounds (Lycorine: 5 μM, Bufalin: 1 μM, Gitoxigenin: 1 μM and Anisomycin: 1 μM) for 24 h as indicated again, lysed and analyzed for extracellular matrix component Collagen1a1 protein levels in primary HCFs (normalized to GAPDH) by representative Western Blot, DMSO refers as a control (see FIG. 2D, 3D, 4D, 5D).

[3] = system: miR-671-5p; assay: miR-671-5p expression in HCFs, qRT-PCR; format: cell-based, human; details: Lycorine 5 μM, others 1 μM, 24 h, vs DMSO
[4] = system: CDR1 mRNA; format: cell-based, human; details: Lycorine 5 μM, others 1 μM, 24 h, vs DMSO
Procedure: Expression levels of CDR1 mRNA change independently of miR-671-5p or CDR1as in primary HCFs upon treatment with Bufalin, Gitoxigenin, Lycorine, Anisomycin and Geldanamycin. HCFs were incubated for 24 h with Bufalin (1 μM), Gitoxigenin (1 μM,) Lycorine (5 μM), Anisomycin (1 μM) and Geldanamycin (1 μM) and impact on CDR1 mRNA level (normalized to GAPDH) by the respective compound was validated via qRT-PCR (see FIG. 23).

[5] = Plasma markers of kidney and liver damage, angiotensin II model; format: in vivo, mice; details: Bufalin 0.5, Gitoxigenin 0.01, Lycorine 4.5, Anisomycin 10 mg/kg i.p. every other day; day 14
Procedure: HF was induced in mice (Example 3) and Bufalin (0.5 mg/kg), Gitoxigenin (0.01 mg/kg), Lycorine (4.5 mg/kg), and Anisomycin (10 mg/kg) were injected as indicated in Example 3. Fourteen days after the operation, EDTA-plasma samples were drawn (n=2-3 per group) (see FIGS. 26 and 27).

COc1ccc(C[C@H]2NC[C@H](O)[C@H]2OC(C)=O)cc1 [Anisomycin]
proliferation of primary HCFs [1]: Dose-dependent inhibitory effects
expression levels of Collagen1a1 (normalized to GAPDH) [2]: decreases expression levels
expression levels of miR-671-5p (normalized to RNU48) [3]: decreased
expression levels of CDR1 mRNA (normalized to GAPDH) [4]: decrease
plasma marker of kidney and liver damage (GOT, GPT, creatinine, urea) [5]: no elevation

C[C@]12CC[C@H](O)C[C@H]1CC[C@@H]1[C@@H]2CC[C@]2(C)[C@@H](c3ccc(=O)oc3)CC[C@]12O [Bufalin]
proliferation of HCFs (derivative screen) [1]: proliferation is prevented
proliferation of primary HCFs [1]: Dose-dependent inhibitory effects
expression levels of Collagen1a1 (normalized to GAPDH) [2]: decreases expression levels
expression levels of miR-671-5p (normalized to RNU48) [3]: decreased
expression levels of CDR1 mRNA (normalized to GAPDH) [4]: decrease
plasma marker of kidney and liver damage (GOT, GPT, creatinine, urea) [5]: no elevation

C[C@]12CC[C@H](O)C[C@H]1CC[C@@H]1[C@@H]2CC[C@]2(C)[C@@H](C3=CC(=O)OC3)[C@@H](O)C[C@]12O [Gitoxigenin]
proliferation of primary HCFs [1]: Dose-dependent inhibitory effects
expression levels of Collagen1a1 (normalized to GAPDH) [2]: decreases expression levels
expression levels of miR-671-5p (normalized to RNU48) [3]: decreased
expression levels of CDR1 mRNA (normalized to GAPDH) [4]: decrease
plasma marker of kidney and liver damage (GOT, GPT, creatinine, urea) [5]: no elevation

O[C@H]1[C@H]2c3cc4c(cc3CN3CCC(=C[C@@H]1O)[C@H]23)OCO4 [Lycorine]
proliferation of HCFs (derivative screen) [1]: proliferation is prevented
proliferation of primary HCFs [1]: Dose-dependent inhibitory effects
expression levels of Collagen1a1 (normalized to GAPDH) [2]: decreases expression levels
expression levels of miR-671-5p (normalized to RNU48) [3]: decreased
expression levels of CDR1 mRNA (normalized to GAPDH) [4]: decrease
plasma marker of kidney and liver damage (GOT, GPT, creatinine, urea) [5]: no elevation

— US11185539B2 (priority 2017, dated 2021)
